Where no end group is shown, it is not given here.
Key:
irrelevant peptide-BSA = experiment: Titer to irrelevant peptide in sera of immunised animals (peptide ELISA); type: in vivo, mouse; details: for titer, irrelevant peptide-BSA: FIG. 11, Balb/c mice, 30 μg peptide, Alum as adjuvant, S3, detection αIgG; for titer, p irrelevant: Table 1, mice, sera 2 weeks after 3rd injection
Method: (§1) Balb/c mice/30 μg Peptide, 2 injections in 2 week intervals. S3=2 weeks after 3rd injection. Alum as adjuvant. Titers against original epitope (p4073) induced by injection of mimotopes. Well coating: 50 μl of 1 μM p4073-BSA or 1 μg/ml activated KLH. Detection: αIgG:
(§2) Subcutaneous injections in the flank were performed in week 1, week 3 and week 7 with 30 μg peptide-KLH per mouse. Intradermal injections in the ear were performed in week 1, week 3 and week 6 with 10 μg peptide-KLH per mouse. Sera were taken 2 weeks after the 3rd injection. Vaccine formulation with Alum (always 1 mg per mouse): up to 250 μl, injected into one flank. The Alum formulation with 1 ml per mouse (500 μl into each flank) was in 1×PBS as buffer.
Vaccine formulation with Gerbu Adjuvant 100 (Gerbu Cat. Nr. #3100; always 50 μl adjuvant per mouse): 200 μl, 100 μl injected into each flank comprising 1×HEPES as buffer.
Female Balb/c mice, five mice per group, were subcutaneously immunized with 30 μg peptide coupled to KLH. Control groups were administered KLH or C-[…] (SEQ ID NO. 147). As adjuvant alum was used. […] The in vitro ELISA assay to determine the antibody titer was performed with pooled sera after two vaccinations in a two week interval (S2; see FIGS. 7a to 7d). The wells of the ELISA plate were coated with KLH (positive control), mimotope-BSA conjugate, C-[…] (SEQ ID NO. 147) and a irrelevant peptide-BSA conjugate (negative control). The detection was performed with anti-mouse IgG.

rabbit CETP = experiment: Anti-protein ELISA of sera of immunised mice, plates coated with purified rabbit CETP; type: in vivo, mouse; details: sera of immunised mice, purified rabbit CETP
Excerpt: (§3) FIGS. 12a and 12b show the in vivo induction of CETP specific antibodies by the administration of the mimotopes of the invention. Titers to p4073 and its correlation to titers to CETP of selected groups (which show high titers against p4073): gr.4, gr.9, gr.10, gr.14, gr.16-20/gr.1 (KLH), gr.2 (original epitope) as controls. Coating: recombinant GST-CETP or purified rabbit CETP, respectively:
(§4) Sera of each group (5 Balb/c mice each) were combined, diluted 1:100 and tested on ELISA plates coated with recombinant GST-CETP or rabbit CETP, respectively. Detection of bound antibodies was with algG.
(§5) Titers to injected peptides as well as to the original CETP epitope were determined. In addition, for selected sera also immune response to CETP protein was measured (Results see FIGS. 7a to 7d and FIGS. 19a to 19e).

injected peptide-BSA = experiment: Titer to the injected peptide in sera of immunised animals (peptide ELISA); type: in vivo, mouse; details: FIG. 11; Balb/c mice, 30 μg peptide, Alum as adjuvant; S3 = 2 weeks after 3rd injection; detection αIgG
Method: Balb/c mice/30 μg Peptide, 2 injections in 2 week intervals. S3=2 weeks after 3rd injection. Alum as adjuvant. […] Detection: αIgG:
(§6) Inhibiting as well as some non-inhibiting peptides were coupled to KLH and injected into mice (wildtype or CETP-transgenic mice; subcutaneously into the flank or intra-dermaly into the ears) or rabbits (subcutaneously into the flank) together with an appropriate adjuvant (aluminium hydroxide and Gerbu 100 for mice and aluminium hydroxide or CFA/IFA for rabbits).
as §5
as §2, with “buffer. […]” for “buffer.”

recombinant GST-CETP = experiment: Anti-protein ELISA of sera of immunised mice, plates coated with recombinant GST-CETP; type: in vivo; details: sera of immunised mice
Excerpt: as §3, §4, §5

original epitope (p4073) = experiment: Titer to the original CETP epitope in sera of immunised animals (peptide ELISA); type: in vivo, mouse; details: for titer, original epitope-BSA: FIG. 11, Balb/c mice, 30 μg peptide, Alum as adjuvant, S3, coating 1 μM p4073-BSA, detection αIgG
Method: as §1, §6, §5, §2
Vaccine formulation with Gerbu Adjuvant 100 (Gerbu Cat. Nr. #3100; always 50 μl adjuvant per mouse): 200 μl, 100 μl injected into each flank comprising 1×HEPES as buffer. […]

[1] = test system: monoclonal antibody “Frida”; experiment: In vitro inhibition (competition) ELISA with mAb Frida on coated original CETP epitope; type: binding, mouse; details: 2.5 ng mAb Frida, detection αIgG1; for inhibition ELISA signal, 2 μg peptide / inhibition ELISA signal, 20 μg peptide: FIG. 10a, coat 1 μM peptide; for inhibition ELISA signal, high: high peptide amount; for inhibition ELISA signal, low: low peptide amount
Method: Different amounts of peptides (2 and 20 μg, as indicated in the respective figures) derived from Phage Display were incubated with the monoclonal antibody that was used for the screening procedure. Peptides diminishing subsequent binding of the antibody to the original CETP epitope (C-terminal 16 amino acids of CETP protein) coated on ELISA plates were considered as inhibiting. (Results see i.a. FIGS. 19a to 19c)

[2] = FIG. 18a, coat 1 μM 4073 peptide

## p4353-KLH: C-FGFPAHVSIDWLQSLT coupled to KLH (CFGFPAHVSIDWLQSLT; also: coupled to KLH)
Irrelevant peptide-BSA
  titer, irrelevant peptide-BSA: 10
Rabbit CETP; FIG. 12a
  ELISA signal, rabbit CETP: 0.39
Injected peptide-BSA
  titer, injected peptide-BSA: 11.200
Recombinant GST-CETP; FIG. 12a
  ELISA signal, recombinant GST-CETP: 0.57
Original epitope (p4073)
  titer, original epitope-BSA: 8.650

## p4366-KLH: C-FGFPSHLIIDWSQSLS coupled to KLH (CFGFPSHLIIDWSQSLS; also: coupled to KLH)
Irrelevant peptide-BSA
  titer, irrelevant peptide-BSA: 10
Rabbit CETP; FIG. 12b
  ELISA signal, rabbit CETP: 0.65
Injected peptide-BSA
  titer, injected peptide-BSA: 4.700
Recombinant GST-CETP; FIG. 12b
  ELISA signal, recombinant GST-CETP: 0.4
Original epitope (p4073)
  titer, original epitope-BSA: 3.600

## p4324-KLH: C-FGFPSHLIIDWAQSLS coupled to KLH (CFGFPSHLIIDWAQSLS; also: coupled to KLH)
Irrelevant peptide-BSA
  titer, irrelevant peptide-BSA: 10
Rabbit CETP; FIG. 12a
  ELISA signal, rabbit CETP: 0.28
Injected peptide-BSA
  titer, injected peptide-BSA: 12.570
Recombinant GST-CETP; FIG. 12a
  ELISA signal, recombinant GST-CETP: 0.58
Original epitope (p4073)
  titer, original epitope-BSA: 7.600

## p4347-KLH: C-FGFPAHVSIDWLQLLS coupled to KLH (CFGFPAHVSIDWLQLLS; also: coupled to KLH)
Irrelevant peptide-BSA
  titer, irrelevant peptide-BSA: 10
Rabbit CETP; FIG. 12a
  ELISA signal, rabbit CETP: 0.2
Injected peptide-BSA
  titer, injected peptide-BSA: 12.000
Recombinant GST-CETP; FIG. 12a
  ELISA signal, recombinant GST-CETP: 0.35
Original epitope (p4073)
  titer, original epitope-BSA: 9.160

## p4181-KLH: F3-6 C-NFLKTLS coupled to KLH (CNFLKTLS; also: coupled to KLH)
Irrelevant peptide-BSA; Alum s.c. (30 μg peptide)
  titer, p irrelevant: no titer
Irrelevant peptide-BSA; KLH/Alum i.d. (10 μg peptide)
  titer, p irrelevant: no titer

## p4352-KLH: C-FGFPAHVSIDWLQSIS coupled to KLH (CFGFPAHVSIDWLQSIS; also: coupled to KLH)
Irrelevant peptide-BSA
  titer, irrelevant peptide-BSA: 10
Rabbit CETP; FIG. 12a
  ELISA signal, rabbit CETP: 0.28
Injected peptide-BSA
  titer, injected peptide-BSA: 19.680
Recombinant GST-CETP; FIG. 12a
  ELISA signal, recombinant GST-CETP: 0.48
Original epitope (p4073)
  titer, original epitope-BSA: 12.070

## C-TIYDSFLDSLAS (N-terminal Cys; CETP mimotope) [P12-37]
Original epitope (p4073); coupled to KLH, mice and rabbits
  antibody response to the original CETP epitope (in words): did not induce an antibody response to the original epitope

## p4223-KLH: F2-9; C-SFLDTLT coupled to KLH (CSFLDTLT; also: coupled to KLH)
Irrelevant peptide-BSA; Alum s.c. (30 μg peptide)
  titer, p irrelevant: no titer

## p4227-KLH: P12-19; C-SANPRDFLETLF coupled to KLH (CSANPRDFLETLF; also: coupled to KLH)
Irrelevant peptide-BSA; Alum s.c. (30 μg peptide)
  titer, p irrelevant: no titer
Irrelevant peptide-BSA; KLH/Alum i.d. (10 μg peptide)
  titer, p irrelevant: no titer
Original epitope (p4073); Table 1, KLH/Alum i.d. (10 μg peptide), mice, sera 2 weeks after 3rd injection
  titer, P4073 (FGFPEHLLVDFLQSLS): no titer

## p4187-KLH: F3-34 C-TFLSSLA coupled to KLH (CTFLSSLA; also: coupled to KLH)
Irrelevant peptide-BSA; Alum s.c. (30 μg peptide)
  titer, p irrelevant: no titer
Irrelevant peptide-BSA; KLH/Gerbu s.c. (30 μg peptide)
  titer, p irrelevant: no titer

## C-FGFPAHVYIDWLQSLS [p4362]
[1]
  inhibition ELISA signal, 2 μg peptide: 0.75
  inhibition ELISA signal, 20 μg peptide: 0.15

## C-AAFPAHLLADAAQALA (N-terminal Cys; CETP mimotope) [p4434]
[1]; FIG. 18c, coat 1 μM 4073
  inhibition ELISA signal, high: 1.461
  inhibition ELISA signal, low: 1.74

## C-FGFPAHVFIDWLQSLS [p4361]
[1]
  inhibition ELISA signal, 2 μg peptide: 0.82
  inhibition ELISA signal, 20 μg peptide: 0.16

## C-FKPAHVFIDWLQSLS (N-terminal cysteine; CETP mimotope) [p4478]
[1]; [2]
  inhibition ELISA signal, high: 1.206
  inhibition ELISA signal, low: 2.231

## C-AAFAAHLLADFLQAAA (N-terminal Cys; CETP mimotope) [p4436]
[1]; FIG. 18c, coat 1 μM 4073
  inhibition ELISA signal, high: 1.691
  inhibition ELISA signal, low: 1.632

Source: US8618046B2, “Treatment of atherosclerosis with cholesterol ester transport protein mimotopes” (Affiris AG, priority 2007, dated 2013)
